Assays:
BRD4 (BDI_K57-E168) = molecular target: T1, BRD4 (BDI_K57-E168) (Homo sapiens, UniProt O60885); assay: TR-FRET bromodomain binding assay, first bromodomain of BRD4; conditions: 100 nM probe
T1 construct: BD1: amino acids K57-E168; made in house
Procedure, shortened: (§1)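 TR-FRET displacement of an Alexa647-labelled BET-inhibitor probe from His-tagged BRD4 BD1 or BD2 (8 nM), read via 1 nM Eu-anti-His antibody after 1 h at room temperature. Buffer was 20 mM sodium phosphate pH 6.0 with 2% DMSO. Probe was 100 nM for BDI and 30 nM for BDII. IC50 came from 4-parameter fits, and Ki from IC50, probe Kd and probe concentration.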

BRD4 (BDII_E352-M457) = molecular target: T2, BRD4 (BDII_E352-M457) (Homo sapiens, UniProt O60885); assay: TR-FRET bromodomain binding assay, second bromodomain of BRD4; conditions: 30 nM probe
T2 construct: protocol; made in house
Procedure, shortened: as §1

[1] = tested on: breast cancer cell line MX-1; assay: MX-1 cell line proliferation assay; format: cell-based; conditions: MX-1 cells, 3-day proliferation assay, Cell Titer Glo; read-out: Cellular proliferation: EC50
Procedure: MX-1 Cell Line Proliferation Assay
The impact of compounds of the Examples on cancer cell proliferation was determined using the breast cancer cell line MX-1 (ATCC) in a 3-day proliferation assay and the data are reported in Table 1. MX-1 cells were maintained in RPMI 1640 medium (Sigma) supplemented with 10% FBS at 37 C.° and an atmosphere of 5% CO2. For compound testing, MX-1 cells were plated in 96-well black bottom plates at a density of 5000 cells/well in 90 μL of culture media and incubated at 37° overnight to allow cell adhesion and spreading. Compound dilution series were prepared in DMSO via a 3-fold serial dilution from 3 mM to 0.1 μM. The DMSO dilution series were then diluted 1:100 in phosphate buffered saline, and 10 μL of the resulted solution were added to the appropriate wells of the MX-1 cell plate. The final compound concentrations in the wells were 3, 1, 0.3, 0.1, 0.03, 0.01, 0.003, 0.001, 0.0003, and 0.0001 μM or 1, 0.3, 0.1, 0.03, 0.01, 0.003, 0.001, 0.0003, 0.0001, and 0.00003 μM.
Luminescence readings from the Cell Titer Glo assay were normalized to the DMSO treated cells and analyzed using the GraphPad Prism software with sigmoidal curve fitting to obtain EC50s. The minimum significant ratio (MSR) was determined to evaluate assay reproducibility (Eastwood et al., (2006) J Biomol Screen, 11: 253-261). The overall MSR was determined to be 2.1 and a moving MSR (last six run MSR overtime) has been <2.

[2] = TR-FRET assay protocol G (compound 0.92 μM-15 pM)
[3] = TR-FRET assay protocol E (compound 9.19 μM-150 pM)

Molecule	Ki (BRD4 (BDI_K57-E168); [2])	Ki (BRD4 (BDII_E352-M457); [2])	EC50 [1]	Ki (BRD4 (BDI_K57-E168); [3])	Ki (BRD4 (BDII_E352-M457); [3])
1-((4-(2,4-difluorophenyl)-10-methyl-7-((methylsulfonyl)methyl)-11-oxo-3,4,10,11-tetrahydro-1H-1,4,10-triazadibenzo[cd,f]azulen-3-yl)methyl)-3-phenylurea [Example 138]	22.5 nM	1.94 nM	256 nM		
3-(4-(2,4-difluorophenyl)-10-methyl-7-((methylsulfonyl)methyl)-11-oxo-3,4,10,11-tetrahydro-1H-1,4,10-triazadibenzo[cd,f]azulen-3-yl)propanamide [Example 99]	15.5 nM	1.66 nM	165 nM		
4-(1H-indazol-5-yl)-10-methyl-7-((methylsulfonyl)methyl)-3,4-dihydro-1H-1,4,10-triazadibenzo[cd,f]azulen-11(10H)-one [Example 246]	4.32 nM	3.6 nM	11.7 nM		
4-(2,4-difluorophenyl)-10-methyl-7-((methylsulfonyl)methyl)-11-oxo-3,4,10,11-tetrahydro-1H-1,4,10-triazadibenzo[cd,f]azulene-3-carboxamide [Example 141]	20.8 nM	10.9 nM	319 nM		
4-(2-(3-(dimethylamino)propoxy)benzyl)-10-methyl-7-((methylsulfonyl)methyl)-3,4-dihydro-1H-1,4,10-triazadibenzo[cd,f]azulen-11(10H)-one [Example 260]	7.26 nM	3.4 nM	219 nM		
4-(2-fluoropyridin-4-yl)-10-methyl-7-((methylsulfonyl)methyl)-3,4-dihydro-1H-1,4,10-triazadibenzo[cd,f]azulen-11(10H)-one [Example 254]	1.12 nM	0.71 nM	3.9 nM		
4-(4-chlorophenyl)-10-methyl-2-(1-methyl-1H-pyrazol-4-yl)-7-(methylsulfonyl)-3,4-dihydro-1H-1,4,10-triazadibenzo[cd,f]azulen-11(10H)-one [Example 271]	3.91 nM	1.64 nM	85.2 nM		
4-(6-methoxypyridin-2-yl)-10-methyl-7-((methylsulfonyl)methyl)-3,4-dihydro-1H-1,4,10-triazadibenzo[cd,f]azulen-11(10H)-one [Example 256]	0.59 nM	0.54 nM	0.35 nM		
4-([1,1′-biphenyl]-4-carbonyl)-10-methyl-7-((methylsulfonyl)methyl)-3,4-dihydro-1H-1,4,10-triazadibenzo[cd,f]azulen-11(10H)-one [Example 102]	9.41 nM	26.9 nM	151 nM		
4-(cyclopropylmethyl)-7-(isopropylsulfonyl)-10-methyl-3,4-dihydro-1H-1,4,10-triazadibenzo[cd,f]azulen-11(10H)-one [Example 1]			27.2 nM	32.7 nM	10.5 nM
10-methyl-4-(pyridin-2-yl)-7-(pyrrolidin-1-ylsulfonyl)-3,4-dihydro-1H-1,4,5,10-tetraazadibenzo[cd,f]azulen-11(10H)-one [Example 266]	17.8 nM	8.15 nM	42.7 nM		
10-methyl-7-((methylsulfonyl)methyl)-4-(piperidin-4-ylmethyl)-3,4-dihydro-1H-1,4,10-triazadibenzo[cd,f]azulen-11(10H)-one [Example 37]	3.36 nM	2.4 nM	> 1000 nM		
10-methyl-7-((methylsulfonyl)methyl)-4-(pyrimidin-4-yl)-3,4-dihydro-1H-1,4,10-triazadibenzo[cd,f]azulen-11(10H)-one [Example 259]	3.4 nM	3.05 nM	19 nM		
Cn1cc2c3c(c[nH]c3c1=O)CN(C1CCC(N)CC1)c1ccc(CS(C)(=O)=O)cc1-2 (mixture of isomers) [Example 212, 4-(4-aminocyclohexyl)-10-methyl-7-((methylsulfonyl)methyl)-3,4-dihydro-1H-1,4,10-triazadibenzo[cd,f]azulen-11(10H)-one]	2.39 nM	5 nM	155 nM		
CC(=O)NC1CCC(N2Cc3c[nH]c4c(=O)n(C)cc(c34)-c3cc(CS(C)(=O)=O)ccc32)CC1 (mixture of isomers) [Example 243, N-(4-(10-methyl-7-((methylsulfonyl)methyl)-11-oxo-10,11-dihydro-1H-1,4,10-triazadibenzo[cd,f]azulen-4(3H)-yl)cyclohexyl)acetamide]	1.85 nM	3.47 nM	153 nM		
CC(C)CC1Nc2ccc(CS(C)(=O)=O)cc2-c2cn(C)c(=O)c3[nH]cc1c23 (racemic) [Example 19, 3-isobutyl-10-methyl-7-((methylsulfonyl)methyl)-3,4-dihydro-1H-1,4,10-triazadibenzo[cd,f]azulen-11(10H)-one]			370 nM	246 nM	43.8 nM
Cn1cc2c3c(c[nH]c3c1=O)C(/C=C/c1ccc(F)cc1)Nc1ccc(CS(C)(=O)=O)cc1-2 (racemic) [Example 20, (E)-3-(4-fluorostyryl)-10-methyl-7-((methylsulfonyl)methyl)-3,4-dihydro-1H-1,4,10-triazadibenzo[cd,f]azulen-11(10H)-one]			544 nM	158 nM	24.5 nM
COC(=O)CCC1c2c[nH]c3c(=O)n(C)cc(c23)-c2cc(CS(C)(=O)=O)ccc2N1c1ccc(F)cc1F [Example 268, (R)-methyl 3-(4-(2,4-difluorophenyl)-10-methyl-7-((methylsulfonyl)methyl)-11-oxo-3,4,10,11-tetrahydro-1H-1,4,10-triazadibenzo[cd,f]azulen-3-yl)propanoate]	82.8 nM	16.4 nM			
Cn1cc(-c2[nH]c3c(=O)n(C)cc4c3c2CN(c2ccccn2)c2ccc(CS(C)(=O)=O)cc2-4)cn1 [Example 273, 10-methyl-2-(1-methyl-1H-pyrazol-4-yl)-7-((methylsulfonyl)methyl)-4-(pyridin-2-yl)-3,4-dihydro-1H-1,4,10-triazadibenzo[cd,f]azulen-11(10H)-one]	1.12 nM	0.88 nM			
Cn1cc(-c2[nH]c3c(=O)n(C)cc4c3c2CN(c2ccccc2)c2ccc(S(C)(=O)=O)cc2-4)cn1 [Example 274, 10-methyl-2-(1-methyl-1H-pyrazol-4-yl)-7-(methylsulfonyl)-4-phenyl-3,4-dihydro-1H-1,4,10-triazadibenzo[cd,f]azulen-11(10H)-one]	2.83 nM	1.56 nM			
Cn1cc(-c2[nH]c3c(=O)n(C)cc4c3c2CN(c2ccccn2)c2ccc(S(C)(=O)=O)cc2-4)cn1 [Example 275, 10-methyl-2-(1-methyl-1H-pyrazol-4-yl)-7-(methylsulfonyl)-4-(pyridin-2-yl)-3,4-dihydro-1H-1,4,10-triazadibenzo[cd,f]azulen-11(10H)-one]	2.09 nM	0.85 nM			
Cn1cc(-c2[nH]c3c(=O)n(C)cc4c3c2CN(c2ccc(F)cc2)c2ccc(CS(C)(=O)=O)cc2-4)cn1 [Example 276, 4-(4-fluorophenyl)-10-methyl-2-(1-methyl-1H-pyrazol-4-yl)-7-((methylsulfonyl)methyl)-3,4-dihydro-1H-1,4,10-triazadibenzo[cd,f]azulen-11(10H)-one]	1.19 nM	1.18 nM			
(R)—N-ethyl-7-(ethylsulfonyl)-10-methyl-11-oxo-4-(1-phenylpropyl)-3,4,10,11-tetrahydro-1H-1,4,10-triazadibenzo[cd,f]azulene-2-carboxamide [Example 272]	58.9 nM	6.35 nM			
N-(2-chloroethyl)-10-methyl-7-((methylsulfonyl)methyl)-11-oxo-10,11-dihydro-1H-1,4,10-triazadibenzo[cd,f]azulene-4(3H)-carboxamide [Example 66]	> 238 nM	> 408 nM			
N-(3-methoxypropyl)-10-methyl-7-((methylsulfonyl)methyl)-11-oxo-10,11-dihydro-1H-1,4,10-triazadibenzo[cd,f]azulene-4(3H)-carboxamide [Example 73]	16.5 nM	19.4 nM			
tert-butyl 4-(3-(4-(2,4-difluorophenyl)-10-methyl-7-((methylsulfonyl)methyl)-11-oxo-3,4,10,11-tetrahydro-1H-1,4,10-triazadibenzo[cd,f]azulen-3-yl)propanamido)piperidine-1-carboxylate [Example 126]	53.6 nM	80 nM			
